Tests used:
wt MEFs = experiment: Cellular ROS levels by flow cytometry in wt MEFs; type: cell-based, mouse
Description: (§1) MEFs from wt and TR4 KO were treated with 200 μM H2O2 for 30 min in the presence/absence of 100 nM of α-tocopherol, and the cellular ROS levels were then measured by flow cytometric analysis. The relative ROS levels were calculated by comparing with untreated MEFs from wt and TR4 KO independently.
Replicative senescence has been employed as a cellular model for aging and it occurs primarily in response to oxidative DNA damage (Campisi, J. et al. (2005) Cell, 120: 513-522). Wt MEFs grow well for approximately 2-3 doublings (P2-3) before decreasing in proliferation, and after 8-10 doublings, the cell senescence occurs. In contrast, TR4 KO MEFs proliferation drastically decline after P4 (FIG. 4A). […] The amounts of cellular ROS in MEFs were determined by flow cytometry using DCFH-DA. […] When MEFs were exposed to H2O2 and measured cellular ROS levels, the amounts of fluorescence in both in wt and TR4 KO increased after H2O2 treatment; TR4 KO MEFs accumulated more ROS than wt MEFs. […]
To determine if TR4 is a mediator for non-enzymatic antioxidants, including vitamin C, vitamin E, β-carotene, and selenium, to suppress ROS production in the cells, cellular ROS levels are examined in LMWA-treated MEFs to antagonize oxidative stress. MEFs from TR4 KO and wt are treated with LMWA with/without H2O2 oxidative stress challenge as ROS levels are measured. […]

TR4 KO MEFs = experiment: Cellular ROS levels by flow cytometry in TR4 KO MEFs; type: cell-based, mouse
Description: as §1
Replicative senescence has been employed as a cellular model for aging and it occurs primarily in response to oxidative DNA damage (Campisi, J. et al. (2005) Cell, 120: 513-522). Wt MEFs grow well for approximately 2-3 doublings (P2-3) before decreasing in proliferation, and after 8-10 doublings, the cell senescence occurs. In contrast, TR4 KO MEFs proliferation drastically decline after P4 (FIG. 4A). ROS contribute to cells senescence, and how cells respond to oxidative stress would determine the life span. The amounts of cellular ROS in MEFs were determined by flow cytometry using DCFH-DA. […] When MEFs were exposed to H2O2 and measured cellular ROS levels, the amounts of fluorescence in both in wt and TR4 KO increased after H2O2 treatment; TR4 KO MEFs accumulated more ROS than wt MEFs.
To test if TR4 is involved in low molecular weight antioxidant (LMWA), such as vitamin E anti-oxidant effects, fibroblasts from TR4 KO and wt were challenged with 250 μM H2O2 in the presence of 100 nM α-tocopherol and VES.
To determine if TR4 is a mediator for non-enzymatic antioxidants, including vitamin C, vitamin E, β-carotene, and selenium, to suppress ROS production in the cells, cellular ROS levels are examined in LMWA-treated MEFs to antagonize oxidative stress. MEFs from TR4 KO and wt are treated with LMWA with/without H2O2 oxidative stress challenge as ROS levels are measured. The ones that lose its anti-oxidant activity in KO MEFs but not wt MEFs are the candidates. […] Therefore, TR4 is mediated by some LMWAs, such as vitamin E, to suppress cellular ROS production. Herein, the anti-ROS effects are compared on TR4 KO vs wt MEFs in response to other LMWAs. The focus is on how TR4 regulates vitamin E and the other LMWA that lost anti-ROS response in TR4 KO MEFs.

Cc1c(C)c2c(c(C)c1O)CC[C@@](C)(CCC[C@H](C)CCC[C@H](C)CCCC(C)C)O2 [vitamin E, α-tocopherol]
intrinsic and exogenous ROS production (wt MEFs; wt MEFs, 10^−7 M vitamin E): can reduce | ROS (vitamin E-mediated anti-oxidant effect) (wt MEFs; wt fibroblasts, 250 μM H2O2, 100 nM α-tocopherol and VES): reduction of ROS | intrinsic and exogenous ROS production (TR4 KO MEFs; KO MEFs, 10^−7 M vitamin E): not | vitamin E anti-ROS effects (relative ROS levels) (TR4 KO MEFs; TR4KO MEFs, 200 μM H2O2 for 30 min, 100 nM α-tocopherol): loss of vitamin E anti-ROS effects | ROS (vitamin E-mediated anti-oxidant effect) (TR4 KO MEFs; TR4 KO fibroblasts, 250 μM H2O2, 100 nM α-tocopherol and VES): lost the vitamin E-mediated anti-oxidant effect
